According to PubChem BioAssay AID2060360 (Molecular Pharmacology Branch, DTP, NCI, 2025):
Where “and” joins values, the source holds several entries; their conditions need not be identical. Equal entries are not always repeated. Blank lines part the entries; values can stand above or below the molecule they belong to.

Test system: 282377-053-R-J1-PDC tumor spheroids, viability
Assay: Anticancer human tumor 282377-053-R-J1-PDC patient-derived colon adenocarcinoma cell line growth inhibition [TAK]
Details: spheroids with HUVEC and MSC; for viability, T/C: stronger effect = lower value
Description: Combinatorial screen of targeted agents with TAK-243 and ipatasertib in multi-cell type tumor spheroids
A high-throughput screen of multi-cell type tumor spheroids was designed to identify active combinations of targeted small molecules and TAK-243 or ipatasertib. Complex spheroids include a stromal component modeled by human endothelial cells (HUVEC) and fibroblasts modeled by human mesenchymal stem cells (MSCs). The concentration ranges selected for each drug and investigational agent were based upon clinically achievable concentrations if the clinical Cmax of the agent was known.
Compounds. The drugs and investigational agents: TAK-243 (785004), ipatasertib (767898), everolimus (733504), selumetinib (741078), bortezomib (756655), trametinib (758246), ixazomib (758254), vemurafenib (761431), dabrafenib (764134), sapanisertib (764658), alpelisib (765974), and copanlisib (816437), were obtained from the National Cancer Institute (NCI) Developmental Therapeutics Program Chemical Repository. The FDA-approved anticancer drug set is available from the NCI Developmental Therapeutics Program. […] The stock solutions were prepared in dimethyl sulfoxide (DMSO, Sigma-Aldrich, St. Louis, MO, cat. D2650) at 800-fold the tested concentration and stored at -70 degrees C prior to their use. All drugs and investigational agents were tested over a range starting from a high concentration at or near the clinical Cmax and decreasing in half-log increments. If the clinical Cmax for an agent had not been determined, the highest concentration tested was 10 microM.
NCI60 Cell Culture. NCI60 cell lines were obtained from the NCI Developmental Therapeutics Program Tumor Repository. For each lot of cells, the Repository performed Applied Biosystems AmpFLSTR Identifiler testing with PCR amplification to confirm consistency with the published Identifier STR profile for each cell line. Cells were kept in continuous culture for no more than 20 passages. The optimal seeding densities for each of the cell lines at each time point assessed were determined prior to performing the concentration response studies. Briefly, the NCI60 human tumor lines were grown as monolayers in RPMI 1640 medium supplemented with 10% FBS and 2 mmol/L L-glutamine.
An additional 2 lines were from the NCI60 cell line panel including melanomas, MALME-3M and SK-MEL-2. Pooled donor human umbilical vein endothelial cells (HUVEC, Lonza, cat. CC-2519) and human mesenchymal stem cells (hMSC, Lonza, cat. PT-2501) were purchased from Lonza (Walkersville, MD).
PDMR cell lines were grown in complete medium (DC medium): Dulbecco's modified Eagle's medium (DMEM)/F12 supplemented with 5% fetal bovine serum (FBS), 2 mM L-glutamine, 100 U/mL penicillin and 100 µg/ml streptomycin, 0.4 µg/ml hydrocortisone, 10 ng/ml epidermal growth factor (EGF) recombinant human protein, 24 µg/mL adenine, and 0.1 mg/mL primocin. During culture from frozen stock vials, PDMR cells were cultured in the same medium containing 10 µM Y-27632 (see Table 3). The PDCs were cultured in complete DMEM/F12 media without 10 microM Y-27632 dihydrochloride for at least two passages prior to the screen. The pooled donor HUVEC and hMSC were cultured in endothelial cell growth medium 2 (PromoCell, Heidelberg, Germany, cat. C-22011) and mesenchymal stem cell growth medium 2 (PromoCell, cat. C-28009), respectively. For all experiments, HUVEC and hMSC were used at passages </=5.
For the pre-screen, cell seeding densities were determined from a titration spanning the range from 5,000 to 313 cells per well. The mct-spheroids including 60% malignant cells, 25% HUVEC and 15% MSC dispensed as a mixture into U-bottom Ultra-Low Attachment 384-well plates (Corning, NY)
High-throughput Drug Combination Screening.
Prior to their inoculation into 384-well plates, malignant cells, HUVEC, and hMSC were removed from T flasks using TrypLE express (Thermo Fisher Scientific, cat. 12605036) and harvested by centrifugation for 5 min at 233 x g. […]

[1] = curve of first compound, second compound 0.3 µM
[2] = curve of first compound, second compound 0.949 µM
[3] = curve of first compound, second compound 3 µM
[4] = curve of first compound, second compound 9.49 µM
[5] = curve of first compound, second compound 30 µM
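Also: spheroids exposed to drugs for seven days before readout.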

SMILES: CC(C)CC(NC(=O)C(Cc1ccccc1)NC(=O)c1cnccn1)B(O)O (configuration not stated) + CC(C)NCC(C(=O)N1CCN(c2ncnc3c2C(C)CC3O)CC1)c1ccc(Cl)cc1
- IC50 [1]: > 10 nM
- IC50 [2]: > 10 nM
- IC50 [3]: > 10 nM
- IC50 [4]: 7.5 nM
- IC50 [5]: 7.96 nM
- viability, T/C (second compound 0.3 µM, first compound 31.6 pM): 105%
- viability, T/C (second compound 0.3 µM, first compound 0.0001 µM): 96%
- viability, T/C (second compound 0.3 µM, first compound 0.000316 µM): 97.5%
- viability, T/C (second compound 0.3 µM, first compound 0.001 µM): 98.3%
- viability, T/C (second compound 0.3 µM, first compound 0.00316 µM): 98.5%
- viability, T/C (second compound 0.3 µM, first compound 0.01 µM): 80.8%
- viability, T/C (second compound 0.949 µM, first compound 31.6 pM): 93%
- viability, T/C (second compound 0.949 µM, first compound 0.0001 µM): 90.7%
- viability, T/C (second compound 0.949 µM, first compound 0.000316 µM): 92.5%
- viability, T/C (second compound 0.949 µM, first compound 0.001 µM): 101%
- viability, T/C (second compound 0.949 µM, first compound 0.00316 µM): 93.1%
- viability, T/C (second compound 0.949 µM, first compound 0.01 µM): 56.5%
- viability, T/C (second compound 3 µM, first compound 31.6 pM): 90.2%
- viability, T/C (second compound 3 µM, first compound 0.0001 µM): 84.2%
- viability, T/C (second compound 3 µM, first compound 0.000316 µM): 87.7%
- viability, T/C (second compound 3 µM, first compound 0.001 µM): 86.6%
- viability, T/C (second compound 3 µM, first compound 0.00316 µM): 78.8%
- viability, T/C (second compound 3 µM, first compound 0.01 µM): 51.1%
- viability, T/C (second compound 9.49 µM, first compound 31.6 pM): 83.2%
- viability, T/C (second compound 9.49 µM, first compound 0.0001 µM): 83.7%
- viability, T/C (second compound 9.49 µM, first compound 0.000316 µM): 83.8%
- viability, T/C (second compound 9.49 µM, first compound 0.001 µM): 79.9%
- viability, T/C (second compound 9.49 µM, first compound 0.00316 µM): 78.6%
- viability, T/C (second compound 9.49 µM, first compound 0.01 µM): 40.6%
- viability, T/C (second compound 30 µM, first compound 31.6 pM): 69.2%
- viability, T/C (second compound 30 µM, first compound 0.0001 µM): 71.3%
- viability, T/C (second compound 30 µM, first compound 0.000316 µM): 72.7%
- viability, T/C (second compound 30 µM, first compound 0.001 µM): 68.5%
- viability, T/C (second compound 30 µM, first compound 0.00316 µM): 65.3%
- viability, T/C (second compound 30 µM, first compound 0.01 µM): 46.2%

- IC50 (curve of compound): > 100000 nM
SMILES: CCCS(=O)(=O)Nc1ccc(F)c(C(=O)c2c[nH]c3ncc(-c4ccc(Cl)cc4)cc23)c1F
- viability, T/C (compound 0.316 µM): 86.4% and 86.2%
- viability, T/C (compound 1 µM): 82.3% and 82.7%
- viability, T/C (compound 3.16 µM): 82.7% and 85.6%
- viability, T/C (compound 10 µM): 21.3% and 27%
- viability, T/C (compound 31.6 µM): 89.4% and 84.6%
- viability, T/C (compound 100 µM): 75.5% and 94%

SMILES: Cn1cnc2c(F)c(Nc3ccc(Br)cc3Cl)c(C(=O)NOCCO)cc21 + CC(C)NCC(C(=O)N1CCN(c2ncnc3c2C(C)CC3O)CC1)c1ccc(Cl)cc1
- IC50 [1]: 396 nM
- IC50 [2]: 190 nM
- IC50 [3]: 161 nM
- IC50 [4]: 191 nM
- IC50 [5]: 66 nM
- viability, T/C (second compound 0.3 µM, first compound 0.00949 µM): 81.5%
- viability, T/C (second compound 0.3 µM, first compound 0.03 µM): 74.4%
- viability, T/C (second compound 0.3 µM, first compound 0.0949 µM): 63.6%
- viability, T/C (second compound 0.3 µM, first compound 0.3 µM): 55.6%
- viability, T/C (second compound 0.3 µM, first compound 0.949 µM): 38.4%
- viability, T/C (second compound 0.3 µM, first compound 3 µM): 17.4%
- viability, T/C (second compound 0.949 µM, first compound 0.00949 µM): 82%
- viability, T/C (second compound 0.949 µM, first compound 0.03 µM): 70.9%
- viability, T/C (second compound 0.949 µM, first compound 0.0949 µM): 56.9%
- viability, T/C (second compound 0.949 µM, first compound 0.3 µM): 45.6%
- viability, T/C (second compound 0.949 µM, first compound 0.949 µM): 31.8%
- viability, T/C (second compound 0.949 µM, first compound 3 µM): 18.9%
- viability, T/C (second compound 3 µM, first compound 0.00949 µM): 77.1%
- viability, T/C (second compound 3 µM, first compound 0.03 µM): 70.5%
- viability, T/C (second compound 3 µM, first compound 0.0949 µM): 54.8%
- viability, T/C (second compound 3 µM, first compound 0.3 µM): 42.1%
- viability, T/C (second compound 3 µM, first compound 0.949 µM): 31%
- viability, T/C (second compound 3 µM, first compound 3 µM): 18.4%
- viability, T/C (second compound 9.49 µM, first compound 0.00949 µM): 73.4%
- viability, T/C (second compound 9.49 µM, first compound 0.03 µM): 72.2%
- viability, T/C (second compound 9.49 µM, first compound 0.0949 µM): 57%
- viability, T/C (second compound 9.49 µM, first compound 0.3 µM): 44.3%
- viability, T/C (second compound 9.49 µM, first compound 0.949 µM): 30.1%
- viability, T/C (second compound 9.49 µM, first compound 3 µM): 18.8%
- viability, T/C (second compound 30 µM, first compound 0.00949 µM): 61.5%
- viability, T/C (second compound 30 µM, first compound 0.03 µM): 59.8%
- viability, T/C (second compound 30 µM, first compound 0.0949 µM): 45.2%
- viability, T/C (second compound 30 µM, first compound 0.3 µM): 34.2%
- viability, T/C (second compound 30 µM, first compound 0.949 µM): 26.4%
- viability, T/C (second compound 30 µM, first compound 3 µM): 13.2%
